One assay concerns A2780. The experiment in a line: Antiproliferative activity against human A2780 cells measured after 48 hrs by MTT assay. The format is functional, cell-based. The following applies: A2780, 48 h. A general note: Formazan colour is commonly taken as a measure of viable cells.
Assay [1] concerns the target T1, Glycogen synthase kinase-3 beta (Homo sapiens, UniProt P49841). Put plainly: biochemical.
Description: Inhibition of recombinant N-terminal His6-tagged human GSK3beta H350L mutant expressed in baculovirus infected Sf21 insect cells using polypeptide GS-2 as substrate after 30 mins in presence of ATP by kinase-glo luminescence assay
Another assay can be described thus: cells. To be noted: Homo sapiens, OVCA433, 48 h.
Assay [2] has as its target Receptor tyrosine-protein kinase erbB-4 (Homo sapiens) (UniProt Q15303). The experiment in a line: Inhibition of ErbB4 (unknown origin) using poly (Glu, Tyr) 4:1 as substrate after 1 hr by ELISA relative to control. The following applies: concentration not given here. (In an ELISA, binding on a coated surface is turned into a signal by an enzyme label.)
Assay [3] relates to Glycogen synthase kinase-3 beta (Homo sapiens), P49841 [UNDEFINED MUTATION]. Put plainly: Non-competitive inhibition of recombinant N-terminal His6-tagged human GSK3beta H350L mutant expressed in baculovirus infected Sf21 insect cells at 6.25 to 12.5 uM in presence of varying levels of ATP and constant GS-2 substrate concentration after 30 mins by double reciprocal plot analysis.
Chain of Glycogen synthase kinase-3 beta (Homo sapiens), P49841 [UNDEFINED MUTATION] (P49841 whole entry, looked up, stated change not applied): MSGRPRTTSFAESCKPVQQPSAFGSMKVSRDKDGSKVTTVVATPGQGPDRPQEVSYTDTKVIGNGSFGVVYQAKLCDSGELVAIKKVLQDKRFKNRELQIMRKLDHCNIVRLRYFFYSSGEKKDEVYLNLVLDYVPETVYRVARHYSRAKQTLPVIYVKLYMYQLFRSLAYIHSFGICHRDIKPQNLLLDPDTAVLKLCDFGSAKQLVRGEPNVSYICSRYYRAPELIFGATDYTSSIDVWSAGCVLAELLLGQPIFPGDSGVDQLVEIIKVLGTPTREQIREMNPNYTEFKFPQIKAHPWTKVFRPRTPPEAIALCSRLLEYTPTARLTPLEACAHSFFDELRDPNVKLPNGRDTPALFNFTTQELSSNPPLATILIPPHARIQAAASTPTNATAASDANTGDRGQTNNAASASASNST

Assay [4] shares this test system. The experiment in a line: Non-competitive inhibition of recombinant N-terminal His6-tagged human GSK3beta H350L mutant expressed in baculovirus infected Sf21 insect cells at 6.25 to 12.5 uM in presence of constant levels of ATP and varying GS-2 substrate concentration after 30 mins by double reciprocal plot analysis.
Assay [5] shares this test system. Put plainly: Non-competitive inhibition of recombinant N-terminal His6-tagged human GSK3beta H350L mutant expressed in baculovirus infected Sf21 insect cells at 20 to 50 uM in presence of constant levels of ATP and varying GS-2 substrate concentration after 30 mins by double reciprocal plot analysis.
For assay [6] the test system is unchanged. Put plainly: Non-competitive inhibition of recombinant N-terminal His6-tagged human GSK3beta H350L mutant expressed in baculovirus infected Sf21 insect cells at 20 to 50 uM in presence of varying levels of ATP and constant GS-2 substrate concentration after 30 mins by double reciprocal plot analysis.
The target in assay [7] is T1, Glycogen synthase kinase-3 beta.
Description: Inhibition of GSK3beta (unknown origin)

Active and inactive are the calls of the source. The calls are words filed in the database; no cut-off is given here.

IC50 and inhibition data for 26 molecules are collected here from ChEMBL document CHEMBL4052632 (Eur J Med Chem, 2017).

T1 sequence (P49841 whole entry): as the sequence (P49841 whole entry, looked up, stated change not applied) above
Chain of Receptor tyrosine-protein kinase erbB-4 (Homo sapiens) (Q15303 whole entry): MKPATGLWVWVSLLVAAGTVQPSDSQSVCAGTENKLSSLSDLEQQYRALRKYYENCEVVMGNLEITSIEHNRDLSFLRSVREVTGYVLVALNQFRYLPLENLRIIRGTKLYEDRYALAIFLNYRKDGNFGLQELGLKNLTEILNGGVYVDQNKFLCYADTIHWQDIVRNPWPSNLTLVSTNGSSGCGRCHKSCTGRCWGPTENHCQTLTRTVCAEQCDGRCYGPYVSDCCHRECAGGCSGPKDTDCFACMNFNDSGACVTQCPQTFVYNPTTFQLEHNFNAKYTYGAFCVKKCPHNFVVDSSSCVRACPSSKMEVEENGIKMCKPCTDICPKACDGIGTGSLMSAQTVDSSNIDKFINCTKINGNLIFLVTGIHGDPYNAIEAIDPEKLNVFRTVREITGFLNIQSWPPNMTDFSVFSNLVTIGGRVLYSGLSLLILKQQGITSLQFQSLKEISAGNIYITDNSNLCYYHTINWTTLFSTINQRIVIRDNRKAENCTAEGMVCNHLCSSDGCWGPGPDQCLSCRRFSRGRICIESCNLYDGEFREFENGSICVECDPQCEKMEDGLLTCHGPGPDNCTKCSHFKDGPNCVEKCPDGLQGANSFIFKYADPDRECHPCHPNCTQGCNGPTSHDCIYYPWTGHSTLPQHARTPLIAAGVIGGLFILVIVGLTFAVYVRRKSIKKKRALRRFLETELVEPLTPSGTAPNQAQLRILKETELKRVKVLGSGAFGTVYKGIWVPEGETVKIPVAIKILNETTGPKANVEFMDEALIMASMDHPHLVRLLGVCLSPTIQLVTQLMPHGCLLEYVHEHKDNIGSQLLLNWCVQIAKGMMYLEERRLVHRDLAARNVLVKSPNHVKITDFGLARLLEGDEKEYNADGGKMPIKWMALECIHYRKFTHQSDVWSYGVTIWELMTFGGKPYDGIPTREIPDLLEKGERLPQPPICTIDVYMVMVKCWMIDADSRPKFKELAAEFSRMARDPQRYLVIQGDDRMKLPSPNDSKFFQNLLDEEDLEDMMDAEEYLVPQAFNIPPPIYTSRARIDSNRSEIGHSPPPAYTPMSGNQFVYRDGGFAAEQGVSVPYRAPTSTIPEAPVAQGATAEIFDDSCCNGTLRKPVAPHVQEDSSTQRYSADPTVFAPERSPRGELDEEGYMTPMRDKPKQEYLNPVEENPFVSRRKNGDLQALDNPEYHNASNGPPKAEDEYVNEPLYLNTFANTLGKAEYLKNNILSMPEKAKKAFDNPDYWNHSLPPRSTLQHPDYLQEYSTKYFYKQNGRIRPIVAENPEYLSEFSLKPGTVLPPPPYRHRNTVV
Description for cells: Antiproliferative activity against human OVCA433 cells measured after 48 hrs by MTT assay

Take `CCCCCCCCCC(=O)N1CCN(C(=O)C2Sc3ccccc3N(CC)C2=O)CC1` (configuration not stated): the IC50 in the assay with A2780 stood at 36 µM; in [1], 51.7 µM; in “cells”, 89.5 µM.

As to `CCCCCCCCCCCCCC(=O)NC1CCN(C(=O)C2Sc3ccccc3N(CC)C2=O)CC1` (configuration not stated), the IC50 in the assay on A2780 was 9.1 µM; in assay [1], 33.4 µM; in the assay “cells”, 26.2 µM.

In assay [2], `CN(C)C/C=C/C(=O)Nc1cc2c(Nc3ccc(F)c(Cl)c3)ncnc2cc1O[C@H]1CCOC1` displayed an inhibition of 98.2%.

Consider `CCCCCCCCCCCCCCCC(=O)N1CCN(C(=O)C2Sc3ccccc3N(CC)C2=O)CC1` (configuration not stated), for which the IC50 in the assay with A2780 was found to be 13.2 µM; in [1] it was 8.7 µM; in the assay “cells”, 15.4 µM. The inhibition entry in assay [3] and in assay [4] was “Active” in each case.

As for `CCCCCCCCCCCCCCCC(=O)N1CCC(NC(=O)C2Sc3ccccc3N(CC)C2=O)CC1` (configuration not stated), the IC50 with A2780 came out at 11.4 µM; in [1] it was 18.6 µM; in the assay “cells” it was 30.4 µM.

Turning to `CCCCCCCCCCCC(=O)N1CCC(NC(=O)C2Sc3ccccc3N(CC)C2=O)CC1` (configuration not stated), the half-inhibitory concentration (IC50) in the assay on A2780 was 16.6 µM; in [1] it was 29.7 µM; in the assay “cells”, 26.8 µM.

In the case of `CCCCCCCCCCCC(=O)NNC(=O)C1Sc2ccccc2N(CC)C1=O` (configuration not stated), the IC50 with A2780 is 40.7 µM; in assay [1] it was 11.9 µM; in the assay “cells”, > 100 µM.

Turning to `CCCCCCCCCCCCCCCCC(=O)NC1CCN(C(=O)C2Sc3ccccc3N(CC)C2=O)CC1` (configuration not stated), the half-inhibitory concentration (IC50) was 4.7 µM with A2780, 46.7 µM in assay [1] and > 100 µM in the assay “cells”.

As to `CCCCCCCCCCC(=O)N1CCC(NC(=O)C2Sc3ccccc3N(CC)C2=O)CC1` (configuration not stated), the values for the IC50 (in the assay on A2780; in assay [1]; in “cells”) were 16.6 µM, 44.3 µM and 28.2 µM, respectively.

Consider `CCCCCCCCCCCCNC(=O)C1Sc2ccccc2N(CC)C1=O` (configuration not stated), for which the IC50 was 15.5 µM in the assay with A2780, 22.9 µM in assay [1] and > 100 µM in “cells”.

Consider `CCCCCCCCCCC(=O)NC1CCN(C(=O)C2Sc3ccccc3N(CC)C2=O)CC1` (configuration not stated), for which the IC50 turned out to be 23.4 µM in the assay with A2780, 45.9 µM in assay [1] and 34.4 µM in “cells”.

In the case of `CCCCCCCCCCCC(=O)NC1CCN(C(=O)C2Sc3ccccc3N(CC)C2=O)CC1` (configuration not stated), the IC50 in the assay with A2780 worked out at 13 µM; in assay [1], 33.4 µM; in the assay “cells” it was 28.4 µM.

`CCCCCCCCCCCCCCCC(=O)NC1CCN(C(=O)C2Sc3ccccc3N(CC)C2=O)CC1` (configuration not stated): the IC50 amounted to 3.5 µM in the assay on A2780, 11.7 µM in assay [1] and 69.8 µM in the assay “cells”. Besides, the inhibition entry in [5] and in assay [6] was “Active” each time.

Regarding `Cn1sc(=O)n(Cc2ccccc2)c1=O`, the results for the IC50 in the assay on A2780 and in “cells” were 20 µM and 15.3 µM, respectively.

`CCCCCCCCC(=O)N1CCC(NC(=O)C2Sc3ccccc3N(CC)C2=O)CC1` (configuration not stated): the values for the IC50 (in the assay with A2780; in [1]; in “cells”) were 24.7 µM, > 100 µM and 90.6 µM, respectively.

Take `CCN1C(=O)C(C(=O)N2CCC(NC(=O)CCCCCc3ccccc3)CC2)Sc2ccccc21` (configuration not stated): the half-maximal inhibitory concentration (IC50) with A2780 is 36 µM; in assay [1], > 100 µM; in “cells”, > 100 µM.

Consider `CCCCCCCCCCC(=O)N1CCN(C(=O)C2Sc3ccccc3N(CC)C2=O)CC1` (configuration not stated), for which the results for the IC50 (in the assay on A2780; in [1]; in “cells”) were 21.8 µM, 27.1 µM and 22.9 µM, respectively.

For `CCCCCCCCCCCCCC(=O)N1CCN(C(=O)C2Sc3ccccc3N(CC)C2=O)CC1` (configuration not stated), the IC50 was found to be 16.7 µM in the assay with A2780, 18.9 µM in [1] and 16.9 µM in the assay “cells”.

For the molecule `CCCCCCCCCC(=O)NC1CCN(C(=O)C2Sc3ccccc3N(CC)C2=O)CC1` (configuration not stated), the values for the concentration for half-maximal inhibition (IC50) (in the assay with A2780; in assay [1]; in “cells”) were 27.2 µM, 68.3 µM and 77.4 µM, respectively.

In the case of `CCCCCCCCCCCCCCC(=O)N1CCC(NC(=O)C2Sc3ccccc3N(CC)C2=O)CC1` (configuration not stated), the figures for the IC50 (with A2780; in [1]; in “cells”) were 9 µM, 17.9 µM and 17.5 µM, respectively.

`CCCCCCCCCCCC(=O)N1CCN(C(=O)C2Sc3ccccc3N(CC)C2=O)CC1` (configuration not stated): the IC50 turned out to be 16.6 µM in the assay with A2780, 23.2 µM in [1] and 19.5 µM in “cells”.

With `CCCCCCCCC(=O)NC1CCN(C(=O)C2Sc3ccccc3N(CC)C2=O)CC1` (configuration not stated), the results for the IC50 (in the assay on A2780; in [1]; in the assay “cells”) were 33.1 µM, > 100 µM and > 100 µM, respectively.

`CCCCCCCCCCCCCC(=O)N1CCC(NC(=O)C2Sc3ccccc3N(CC)C2=O)CC1` (configuration not stated): the results for the IC50 (in the assay with A2780; in assay [1]; in the assay “cells”) were 13.1 µM, 27.3 µM and 14.9 µM, respectively.

Take `CCCCCCCCCC(=O)N1CCC(NC(=O)C2Sc3ccccc3N(CC)C2=O)CC1` (configuration not stated): the IC50 with A2780 was 23.6 µM; in assay [1] it was 74.9 µM; in “cells”, 47.7 µM.

With `CCCCCCCCC(=O)N1CCN(C(=O)C2Sc3ccccc3N(CC)C2=O)CC1` (configuration not stated), the 50% inhibitory concentration (IC50) in the assay with A2780 is 34.1 µM; in assay [1], > 100 µM; in the assay “cells”, 81.8 µM.

Regarding `O=C1Cc2cc(Br)ccc2/C1=c1/[nH]c2ccccc2/c1=C\O`, half-maximal inhibition in [7] (IC50) was put at 0.005 µM.

As usually defined, the IC50 is the midpoint of a concentration-inhibition curve. One may read the inhibition as the share of the control response that was lost under treatment.
